Key:
Format in all cases: functional
[1] = test system: Chilo suppressalis; assay: Insecticidal activity against Chilo suppressalis (rice stem borer) assessed as mortality at 50 ug/g administered as topical application
[2] = test system: Nilaparvata lugens; assay: Insecticidal activity against Nilaparvata lugens (brown planthopper) assessed as mortality at 50 ppm; conditions: for mortality at 50 ppm: Nilaparvata lugens
[3] = test system: Spodoptera litura; assay: Insecticidal activity against Spodoptera litura assessed as mortality at 500 ppm; conditions: for mortality at 500 ppm: Spodoptera litura
[4] = test system: Culex pipiens molestus; assay: Insecticidal activity against Culex pipiens molestus assessed as mortality at 5 ppm; conditions: for mortality at 5 ppm: Culex pipiens
[5] = test system: Tetranychus urticae; assay: Acaricidal activity against Tetranychus urticae (two-spotted spider mite) assessed as mortality at 500 ppm; conditions: for mortality at 500 ppm: Tetranychus urticae
[6] = test system: Chilo suppressalis; assay: Insecticidal activity against Chilo suppressalis (rice stem borer) assessed as mortality compound administered as topical application

CN(C)CC(CS)CS.O=C(O)C(=O)O
mortality [1]: 100% | mortality at 50 ppm [2]: 100% | mortality at 500 ppm [3]: 30% | mortality at 5 ppm [4]: 100% | mortality at 500 ppm [5]: 100%

CC(C)NC(=O)SCC(CSC(=O)NC(C)C)CN(C)C.O=C(O)C(=O)O
mortality [1]: 100% | mortality [2]: 0% | mortality at 500 ppm [3]: 0% | mortality at 5 ppm [4]: 100% | LD50 [6]: 30.5 mg/kg | mortality [5]: 90%

CCOC(=O)CSCC(CSCC(=O)OCC)CN(C)C.O=C(O)C(=O)O
mortality [1]: 0% | mortality at 50 ppm [2]: 40% | mortality at 500 ppm [3]: 0% | mortality at 5 ppm [4]: 0% | mortality at 500 ppm [5]: 80%

CN(C)C[C@@H]1CCSC(C#N)(c2ccc(Cl)cc2)S1.O=C(O)C(=O)O (mixture of isomers)
mortality [1]: 100% | mortality at 50 ppm [2]: 90% | mortality at 500 ppm [3]: 0% | mortality at 5 ppm [4]: 90% | LD50 [6]: 20.7 mg/kg | mortality at 500 ppm [5]: 100%

CN(C)CC1CS[S+]([O-])C1.O=C(O)C(=O)O (configuration not stated)
mortality [1]: 100% | mortality at 50 ppm [2]: 100% | mortality at 500 ppm [3]: 70% | mortality at 5 ppm [4]: 0% | mortality at 500 ppm [5]: 100%

CCC(=O)SCC(CSC(=O)CC)CN(C)C.O=C(O)C(=O)O
mortality [1]: 100% | mortality at 50 ppm [2]: 70% | mortality [3]: 0% | mortality [4]: 75% | LD50 [6]: 6.6 mg/kg | mortality at 500 ppm [5]: 100%

CCOC(=O)[C@H]1SC[C@H](CN(C)C)CS1.O=C(O)C(=O)O
mortality [1]: 0% | mortality at 50 ppm [2]: 30% | mortality at 500 ppm [3]: 0% | mortality at 5 ppm [4]: 5% | mortality at 500 ppm [5]: 100%

CN(C)CC1CCS[S+]1[O-].O=C(O)C(=O)O (configuration not stated)
mortality [1]: 100% | mortality at 50 ppm [2]: 100% | mortality at 500 ppm [3]: 0% | mortality at 5 ppm [4]: 100% | LD50 [6]: 7.5 mg/kg | mortality at 500 ppm [5]: 100%

CCOP(=O)(OCC)[C@]1(C#N)SC[C@H](CN(C)C)CS1.O=C(O)C(=O)O
mortality [1]: 60% | mortality at 50 ppm [2]: 80% | mortality at 500 ppm [3]: 10% | mortality at 5 ppm [4]: 100% | mortality at 500 ppm [5]: 100%

CN(C)CC(CSC(=O)N(C)C)CSC(=O)N(C)C.O=C(O)C(=O)O
mortality [1]: 20% | mortality at 50 ppm [2]: 30% | mortality at 500 ppm [3]: 0% | mortality at 5 ppm [4]: 0% | mortality at 500 ppm [5]: 100%

CN(C)CC(CSC(N)=O)CSC(N)=O.Cl.O
mortality [1]: 100% | mortality at 50 ppm [2]: 100% | mortality at 500 ppm [3]: 100% | mortality at 5 ppm [4]: 100% | LD50 [6]: 12.6 mg/kg | mortality at 500 ppm [5]: 80%

CN(C)C[C@@H]1CCSC(C(=O)c2ccccc2)(C(=O)c2ccccc2)S1
mortality [1]: 100% | mortality [2]: 90% | mortality [3]: 10% | mortality [4]: 40% | LD50 [6]: 7.1 mg/kg | mortality [5]: 100%

CC(=O)SCC(CSC(C)=O)CN(C)C.O=C(O)C(=O)O
mortality [1]: 100% | mortality at 50 ppm [2]: 100% | mortality at 500 ppm [3]: 70% | mortality at 5 ppm [4]: 100% | LD50 [6]: 32.5 mg/kg | mortality at 500 ppm [5]: 100%

CN(C)C1CSSC1.O=C(O)C(=O)O [NEREISTOXIN HYDROGEN OXALATE]
mortality [1]: 100% | mortality at 50 ppm [2]: 100% | mortality at 500 ppm [3]: 30% | mortality at 5 ppm [4]: 100% | LD50 [6]: 1.7 mg/kg | mortality at 500 ppm [5]: 50%

CNC(=O)SCC(CSC(=O)NC)CN(C)C
mortality [1]: 100% | mortality at 50 ppm [2]: 30% | mortality at 500 ppm [3]: 20% | mortality at 5 ppm [4]: 100% | LD50 [6]: 27.1 mg/kg | mortality at 500 ppm [5]: 90%

CN(C)CC(CCSS(=O)(=O)c1ccccc1)SS(=O)(=O)c1ccccc1 (configuration not stated)
mortality [1]: 100% | mortality at 50 ppm [2]: 30% | mortality at 500 ppm [3]: 0% | mortality at 5 ppm [4]: 100% | LD50 [6]: 11.6 mg/kg | mortality at 500 ppm [5]: 100%

CN(C)CC(CSC(=O)c1ccccc1)CSC(=O)c1ccccc1
mortality [1]: 100% | mortality at 50 ppm [2]: 100% | mortality at 500 ppm [3]: 10% | mortality at 5 ppm [4]: 100% | LD50 [6]: 4 mg/kg | mortality at 500 ppm [5]: 100%

CCN(CC)C(=O)[C@]1(C#N)SC[C@H](CN(C)C)CS1.O=C(O)C(=O)O
mortality [1]: 100% | mortality at 50 ppm [2]: 80% | mortality at 500 ppm [3]: 100% | mortality at 5 ppm [4]: 100% | LD50 [6]: 7.2 mg/kg | mortality at 500 ppm [5]: 100%

CN(C)C(CSC(N)=O)CSC(N)=O.Cl [CARTAP HYDROCHLORIDE]
mortality [1]: 100% | mortality at 50 ppm [2]: 100% | mortality at 500 ppm [3]: 35% | mortality at 5 ppm [4]: 100% | LD50 [6]: 2.3 mg/kg | mortality at 500 ppm [5]: 37%

CN(C)CC1CSSSC1.O=C(O)C(=O)O
mortality [1]: 100% | mortality at 50 ppm [2]: 100% | mortality at 500 ppm [3]: 100% | mortality at 5 ppm [4]: 100% | LD50 [6]: 7.5 mg/kg | mortality at 500 ppm [5]: 100%

CN(C)C(CSS(=O)(=O)c1ccccc1)CSS(=O)(=O)c1ccccc1 [BENSULTAP]
LD50 [6]: 3.7 mg/kg

CNC(=O)SCCC(CN(C)C)SC(=O)NC (configuration not stated)
mortality [1]: 100% | mortality at 50 ppm [2]: 100% | mortality at 500 ppm [3]: 0% | mortality at 5 ppm [4]: 5% | mortality at 500 ppm [5]: 30%

CCC(=O)SCCC(CN(C)C)SC(=O)CC.O=C(O)C(=O)O (configuration not stated)
mortality [1]: 100% | mortality at 50 ppm [2]: 70% | mortality at 500 ppm [3]: 40% | mortality at 5 ppm [4]: 20% | mortality at 500 ppm [5]: 80%

CN(C)C[C@H]1CS[C@](C#N)(c2ccc(Cl)cc2)SC1
mortality [1]: 100% | mortality at 50 ppm [2]: 100% | mortality at 500 ppm [3]: 0% | mortality at 5 ppm [4]: 100% | mortality at 500 ppm [5]: 70%

CC(C)NC(=O)SCCC(CN(C)C)SC(=O)NC(C)C (configuration not stated)
mortality [1]: 100% | mortality at 50 ppm [2]: 45% | mortality at 500 ppm [3]: 0% | mortality at 5 ppm [4]: 65% | LD50 [6]: 24.5 mg/kg | mortality at 500 ppm [5]: 50%

CCOC(=O)C1SCC(CN(C)C)CS1 (mixture of isomers)
mortality [1]: 0% | mortality at 50 ppm [2]: 90% | mortality at 500 ppm [3]: 0% | mortality at 5 ppm [4]: 0% | mortality at 500 ppm [5]: 20%

CN(C)C1CS[S+]([O-])C1.O=C(O)C(=O)O (configuration not stated) [NEREISTOXIN MONOXIDE HYDROGEN OXALATE]
mortality [1]: 100% | mortality at 50 ppm [2]: 100% | mortality at 500 ppm [3]: 30% | mortality at 5 ppm [4]: 50% | LD50 [6]: 5.8 mg/kg | mortality at 500 ppm [5]: 60%

CN(C)CC(CSS(=O)(=O)c1ccccc1)CSS(=O)(=O)c1ccccc1.O=C(O)C(=O)O
mortality [1]: 100% | mortality at 50 ppm [2]: 100% | mortality at 500 ppm [3]: 80% | mortality at 5 ppm [4]: 0% | mortality at 500 ppm [5]: 100%

CC(C)NC(=S)SCC(CSC(=S)NC(C)C)CN(C)C
mortality [1]: 100% | mortality at 50 ppm [2]: 100% | mortality at 500 ppm [3]: 50% | mortality at 5 ppm [4]: 100% | LD50 [6]: 12.7 mg/kg | mortality at 500 ppm [5]: 80%

CN(C)CC1CSC(C(=O)c2ccccc2)(C(=O)c2ccccc2)SC1.O=C(O)C(=O)O
mortality [1]: 100% | mortality at 50 ppm [2]: 100% | mortality at 500 ppm [3]: 0% | mortality at 5 ppm [4]: 100% | mortality at 500 ppm [5]: 100%

CN(C)CC(CCSC(=O)c1ccccc1)SC(=O)c1ccccc1.Cl (configuration not stated)
mortality [1]: 100% | mortality at 50 ppm [2]: 100% | mortality [3]: 50% | mortality at 5 ppm [4]: 95% | mortality at 500 ppm [5]: 100%

CSCCC(CN(C)C)SC.O=C(O)C(=O)O (configuration not stated)
mortality [1]: 0% | mortality [2]: 30% | mortality at 500 ppm [3]: 0% | mortality at 5 ppm [4]: 0% | mortality [5]: 100%

CN(C)CC1CSC(C(=O)c2ccccc2)(C(=O)c2ccccc2)SC1
mortality [1]: 100% | mortality [2]: 100% | mortality [3]: 0% | mortality [4]: 100% | LD50 [6]: 13.5 mg/kg | mortality [5]: 80%

CN(C)CC(S)CCS.O=C(O)C(=O)O (configuration not stated)
mortality [1]: 100% | mortality at 50 ppm [2]: 100% | mortality at 500 ppm [3]: 60% | mortality at 5 ppm [4]: 45% | mortality at 500 ppm [5]: 100%

CC(C)NC(=O)SCC(CSC(=O)NC(C)C)CN(C)C
mortality [1]: 100% | mortality [2]: 20% | mortality [3]: 0% | mortality [4]: 100% | mortality [5]: 60%

CCC(=O)SCC(CSC(=O)CC)CN(C)C
mortality [1]: 100% | mortality [2]: 70% | mortality [3]: 40% | mortality [4]: 100% | LD50 [6]: 7.6 mg/kg | mortality [5]: 100%

CN(C)CC1CSSC1.O=C(O)C(=O)O
mortality [1]: 100% | mortality at 50 ppm [2]: 100% | mortality at 500 ppm [3]: 90% | mortality at 5 ppm [4]: 100% | LD50 [6]: 11.4 mg/kg | mortality at 500 ppm [5]: 100%

CCOP(=O)(OCC)[C@]1(C#N)SC[C@@H](CN(C)C)CS1.O=C(O)C(=O)O
mortality [1]: 100% | mortality at 50 ppm [2]: 100% | mortality at 500 ppm [3]: 70% | mortality at 5 ppm [4]: 100% | mortality at 500 ppm [5]: 100%

CN(C)CC1CCSS1.O=C(O)C(=O)O (configuration not stated)
mortality [1]: 100% | mortality at 50 ppm [2]: 80% | mortality at 500 ppm [3]: 30% | mortality at 5 ppm [4]: 100% | LD50 [6]: 4.3 mg/kg | mortality at 500 ppm [5]: 100%

CN(C)C[C@H]1CS[C@@](C#N)(c2ccc(Cl)cc2)SC1
mortality [1]: 100% | mortality at 50 ppm [2]: 100% | mortality at 500 ppm [3]: 0% | mortality at 5 ppm [4]: 100% | mortality at 500 ppm [5]: 90%

CN(C)CC(CCSC(=O)c1ccccc1)SC(=O)c1ccccc1.O.O=C(O)C(=O)O (configuration not stated)
mortality [1]: 100% | mortality [2]: 100% | mortality [3]: 0% | mortality [4]: 100% | mortality [5]: 100%

CC(=O)SCCC(CN(C)C)SC(C)=O (configuration not stated)
mortality [1]: 100% | mortality at 50 ppm [2]: 80% | mortality at 500 ppm [3]: 10% | mortality at 5 ppm [4]: 80% | mortality at 500 ppm [5]: 100%

CSCCC(CN(C)C)SC (configuration not stated)
mortality [1]: 0% | mortality [2]: 10% | mortality [3]: 0% | mortality [4]: 0% | mortality [5]: 20%

CN(C)C1CSSSC1.O=C(O)C(=O)O [THIOCYCLAM HYDROGEN OXALATE]
mortality [1]: 100% | mortality at 50 ppm [2]: 100% | mortality at 500 ppm [3]: 20% | mortality at 5 ppm [4]: 100% | mortality at 500 ppm [5]: 80%

Source: ChEMBL document CHEMBL3045009, “Synthesis and Biological Activity of the Functional Derivatives of 3- and 4-(Dimethyl-aminomethyl)-1,2-dithiolanes” (1992)
